Patent publication US12570665B2, “Compositions comprising fullerenyl mesochlorin nano-photosensitizers with covalently bound antibiotics and their uses in combination therapy” (priority 2019, dated 2026)

How the values were obtained:
A. baumannii (AF0004) = settings: 12.5 μM
From the text: Bacterial strains: Two Gram-positive MRSA strains (IQ0064 and IB0004) and one Gram-negative Acinetobacter baumannii strain (AF0004) were studied. All of them are clinical isolates. MRSA IQ0064 was a multidrug-resistant strain isolated from wounded military personnel deployed to Iraq. According to a microbiology test, IQ0064 strain was resistant to ampicillin, cefazolin, cefoxitin, oxacillin, and penicillin. MRSA IB0004 was an isolate from a keratitis patient. A. baumannii AF0004 was a multidrug-resistant strain isolated from wounded military personnel deployed to Afghanistan. […]
Light source: Light was delivered topically using a noncoherent light source (LumaCare, Newport Beach, CA) that provided the full spectrum of visible light (400 to 800 nm). […] The light power was routinely measured using a laser power meter (Fieldmate; Coherent, Portland, OR).
Antimicrobial photodynamic inactivation (aPDI) of bacteria: Bacterial suspensions were adjusted to 10^8 CFU/mL, inoculated to 96-well plates (200 μL/well), incubated with fullerenes at 6.25, 12.50, 18.75, and 25.00 μM concentrations for 1.0 h and then either left in dark or irradiated with 660 nm light at 115 J/cm^2. […] Survival fractions were routinely expressed as ratios of CFU of bacterial cells treated with light and fullerene monoadducts, or treated with fullerenes in the absence of light, to CFU of bacteria treated with neither.

MRSA (strain IQ0064) = format: cell-based, Staphylococcus aureus
Protocol: (§1) FIG. 3. (A) aPDT against vancomycin-resistant and sensitive strains of E. fecium (VSE). Log10 survival fractions of E. fecium (10^8 cells/mL) incubated for 30 min with 50-nM concentration of VCM-mPheZn-N5^+ (LC39, see Huang, L., Wang, M., Chiang, L. Y., Hamblin, M. R., et al. Photochem. Photobiol. Sci. 2018, 17, 638-651) by irradiation with increasing exposes of a 415-nm LED light. […] Irradiation was carried out with (C) the radiant exposure of 115 J/cm^2 at 660 nm (LED light, 40 mW/cm^2) and (D) the radiant exposure of 20 J/cm^2 at 405 nm (LED light, 24 mW/cm^2). All data were represented as login survival fractions as a function of both aPDI agent concentration and light wavelength/exposure, where the dashed red line in Panel Cd represents the detection limit of MRSA CFU. […] (E) Concentration dependent aPDI of MRSA (strain IQ0064) by ChlPd-(C70>)N10^+ (LC41) upon illumination at 115 J/cm^2 and 660-nm wavelength (40 mW/cm^2).
Bacterial strains: Two Gram-positive MRSA strains (IQ0064 and IB0004) and one Gram-negative Acinetobacter baumannii strain (AF0004) were studied. All of them are clinical isolates. MRSA IQ0064 was a multidrug-resistant strain isolated from wounded military personnel deployed to Iraq. According to a microbiology test, IQ0064 strain was resistant to ampicillin, cefazolin, cefoxitin, oxacillin, and penicillin. MRSA IB0004 was an isolate from a keratitis patient. A. baumannii AF0004 was a multidrug-resistant strain isolated from wounded military personnel deployed to Afghanistan. AF0004 was resistant to a panel of important antibiotics including amikacin, ampicillin, aztreonam, cefazolin, cefepime, cefoxitin, ceftazidime, ceftriaxone, cefuroxime, ciprofloxacin, gentamicin, imipenem, levofloxacin, meropenem, nitrofurantoin, tetracycline and trimethoprim-sulfamethoxazole.
Light source: Light was delivered topically using a noncoherent light source (LumaCare, Newport Beach, CA) that provided the full spectrum of visible light (400 to 800 nm). The system employed interchangeable filter probes and produced a uniform spot for illumination. We used a 660±15-nm filter probe. The irradiance of 40 mW/cm^2 was used throughout the study. The light power was routinely measured using a laser power meter (Fieldmate; Coherent, Portland, OR).
Antimicrobial photodynamic inactivation (aPDI) of bacteria: Bacterial suspensions were adjusted to 10^8 CFU/mL, inoculated to 96-well plates (200 μL/well), incubated with fullerenes at 6.25, 12.50, 18.75, and 25.00 μM concentrations for 1.0 h and then either left in dark or irradiated with 660 nm light at 115 J/cm^2. At the completion of each stage of illumination, the contents of the wells were well mixed before sampling. Aliquots (30 μL) were taken from each well to determine CFU. The aliquots were serially diluted 10-fold in phosphate-buffered saline (PBS) to give dilutions of 10^1 to 10^5 times in addition to the original concentration; then, 10 μL aliquots of each of the dilutions were streaked horizontally on square BHI plates. Plates were streaked in triplicate and incubated for 24 h at 37° C. in the dark to allow colony formation. Control groups included bacterial cells that were treated with light alone (no fullerene monoadducts added), and cells treated with fullerene monoadducts (no light) as the dark control. Survival fractions were routinely expressed as ratios of CFU of bacterial cells treated with light and fullerene monoadducts, or treated with fullerenes in the absence of light, to CFU of bacteria treated with neither.

MRSA cells = experiment: Binding to MRSA cells by confocal microscopy fluorescence imaging; format: cell-based, Staphylococcus aureus; settings: 405-nm irradiation, red emission 640-780 nm
MRSA = settings: against MRSA
E. fecium = settings: 50 nM, 415 nm irradiation, VCM-resistant and sensitive strains
Protocol: as §1

Molecule: 3a-hydroxy-3b-aminoethylene-aminoPEGlycolated vancomycin-15b-methyl-13a,17c-di[N,N′,N,N,N,N-hexapropyl-panta(aminoethylene)]amide-mesochlorin [LC40e]
- dark toxicity to A. baumannii cells (A. baumannii (AF0004); no light): about 1.5 log10 CFU
- CFU reduction (inactivation of A. baumannii CFUs) (A. baumannii (AF0004); red light 660 nm, 115 J/cm^2): > 6 log10 CFU
- photokilling efficacy on MRSA (MRSA (strain IQ0064); 10-20 μM, 405-nm irradiation, 20 J/cm^2): 5.0 log10
- CFU reduction (photokilling of MRSA) (MRSA (strain IQ0064); 10-20 μM, 660-nm light, 115 J/cm^2): > 6.5 log10 CFU
- light mediated killing of MRSA cells (qualitative) (MRSA (strain IQ0064); 405- and 660-nm photoexcitation, up to 20 μM): susceptible to light mediated killing
- additional increase in the inactivation of bacteria by the combination of antibiotics and aPDT (MRSA (strain IQ0064); combination versus antibiotic activity alone): 3 log10 CFU
- antibiotic activity, CFU killing without red-light irradiation (MRSA (strain IQ0064); without red-light irradiation, bacterium not given, MRSA implied): 4 log10 CFU
- red FL emission on pretreated MRSA cells (relative cell affinity) (MRSA cells): significantly enhanced
- MIC (MRSA): 2.0 µg/mL

Molecule: 3a-hydroxy-3b-vancomycin-15b-methyl-17c-[N,N′,N,N,N,N-hexapropyl-penta(aminoethylene)]amide-[Zn^+2]mesopheophorbide [LC39]
- aPDT effect (E. fecium): excellent aPDT effect

Molecule: CN[C@H](CC(C)C)C(=O)N[C@H]1C(=O)N[C@@H](CC(N)=O)C(=O)N[C@H]2C(=O)N[C@H]3C(=O)N[C@H](C(=O)N[C@H](C(=O)O)c4cc(O)cc(O)c4-c4cc3ccc4O)[C@H](O)c3ccc(c(Cl)c3)Oc3cc2cc(c3O[C@@H]2O[C@H](CO)[C@@H](O)[C@H](O)[C@H]2O[C@H]2C[C@](C)(N)[C@H](O)[C@H](C)O2)Oc2ccc(cc2Cl)[C@H]1O [vancomycin, reference compound]
- effect on viability of MRSA cells (MRSA (strain IQ0064); equivalent dose, control, 660 nm and 405 nm (FIGS. 3Ca, 3Da)): negligible effect
